Reference: patent US6743913B2, “Pyrrolothiazine and pyrrolothiazepine compounds having serotonin-2 receptor antagonistic and α-1-blocking action” (Daiichi Suntory Pharma Co., Ltd., priority 1997, dated 2004)

How the values were obtained:
serotonin-2 receptors = assay: Anti-serotonin (5-HT) action: 5-HT-induced contraction of isolated superior mesenteric artery; settings: contraction by 10^−5 M 5-HT taken as 100%, guinea pig superior mesenteric artery
Method: (2) Anti-serotonin (5-HT) Action
A preparation cut in a helical form was suspended under resting tension of 0.3 g in a Magnus cylinder filled with the Tyrode solution which had been aerated with a gas mixture of 95% O2 and 5% CO2 and maintained at 37° C. Using an isometric transducer (“UL-10”, manufactured by SHINKOH K.K.) and a pressure preamplifier (“DSA-605A”, manufactured by SHINKOH K.K.), variations in tension were measured. The isometric tensions were recorded on a pen-writing recorder (“VP-6537A”, manufactured by NATIONAL K.K.). Taking the contraction induced by 10^−5 M serotonin (5-HT) as 100%, the percent contractions by 10^−5 M 5-HT in the presence of each test drug at 10^−7 M and 10^−6 M were determined as anti-5-HT action.

α1 receptors = assay: Anti-α1 action: norepinephrine-induced tonic contraction of isolated thoracic aorta; settings: tonic contraction by 10^−5 M norepinephrine taken as 100%, guinea pig thoracic aorta
Method: The thoracic aorta of each Hartley male guinea pig (body weight: 300-500 g) was excised. A preparation cut in a helical form was suspended under 1 g load in a Magnus cylinder filled with the Tyrode solution which had been aerated with a gas mixture of 95% O2 and 5% CO2 and maintained at 37° C. Using an isometric transducer (“TB-612J”, manufactured by Nihon Kohden Corporation) and a pressure preamplifier (“AP-620G”, manufactured by Nihon Kohden Corporation), variations in tension were measured. The isometric tensions were recorded on a thermal pen-writing recorder (“WT-647G”, manufactured by Nihon Kohden Corporation). Taking the tonic contraction induced by 10^−5 M norepinephrine (NE) as 100%, the percent contractions upon addition of each test drug at 10^−8 M and 10^−7 M were determined and recorded as α1 action.

| SMILES | Anti 5-HT action (% of Control) (serotonin-2 receptors; test drug 10^−6 M) | Anti 5-HT action (% of Control) (serotonin-2 receptors; test drug 10^−7 M) | Anti α1 action (% of Control) (α1 receptors; test drug 10^−7 M) | Anti α1 action (% of Control) (α1 receptors; test drug 10^−8 M) |
| --- | --- | --- | --- | --- |
| CN1CC(=NO)c2c(ccn2CCCCN2CCC(C(=O)c3ccc(F)cc3)CC2)S1(=O)=O [Compound 28, 5-[4-[4-(4-fluorobenzoyl)piperidino]-butyl]-4-hydroxyimino-2-methyl-2,3,4,5-tetrahydropyrrolo[2,3-e][1,2]thiazine 1,1-dioxide] | 30.2 % of Control | 73.5 % of Control | 45.8 % of Control | 80.0 % of Control |
| CN1CC(=O)c2c(ccn2CCCCN2CCC(C(=O)c3ccc(F)cc3)CC2)S1(=O)=O [Compound 22, 5-[4-[4-(4-fluorobenzoyl)piperidino]butyl]-2-methyl-2,3,4,5-tetrahydropyrrolo[2,3-e][1,2]thiazin-4-one 1,1-dioxide] | 41.1 % of Control | 80.4 % of Control | 43.2 % of Control | 66.6 % of Control |
| CN1CCC(=NO)c2c(ccn2CCCCN2CCC(C(=O)c3ccc(F)cc3)CC2)S1(=O)=O [Compound 29, 6-[4-[4-(4-fluorobenzoyl)piperidino]-butyl]-5-hydroxyimino-2-methyl-3,4,5,6-tetrahydro-2H-pyrrolo[2,3-f][1,2]thiazepine 1,1-dioxide] | 32.5 % of Control | 79.0 % of Control | 33.4 % of Control | 83.1 % of Control |
